Results published in article PMC12391994, “Synthesis of a fac-Tricarbonylrhenium(I) Complex with Pyrithione, Its Physicochemical Characterization, and Assessment of Biological Effects” (ACS Omega, 2025).
Marks after values point to notes of the source that are not given here.

Key:
[1] = pH-dependent UV-vis spectrophotometry (solution speciation, pKa of aqua ligand); format: physicochemical; settings: between pH 3 and 8, no spectral changes
Excerpt: However, at pH > ∼8, the spectrum changes considerably (Figure ).
The isosbestic point indicates a single equilibrium process, which is most likely deprotonation of the coordinated aqua ligand in complex 4a. This process was studied in our previous work for similar fac-[Re(CO)3] complexes formed with (N,N)-bearing ligands, and the calculated pK a (H2O) is around 8. […] Similar pK a values in the presence and absence of the chloride ions indicate a low chloride affinity of the aqua complex. Based on these values, the fraction of [Re(CO)3(pth)(H2O)] is 100% at pH = 7.4. The analogous half-sandwich complex [Ru(cym)(pth)(H2O)]^+ was also characterized by high solution stability, and a similarly high pK a value (10.34 (0.2 M KCl)).
For the solution studies, an Agilent Cary 3500 spectrophotometer was utilized to obtain UV–vis spectra in the wavelength range of 200–1100 nm. The path length ( l ) was 1 cm in all cases. The concentrations of the complex were between 10 and 60 μM. For investigation of the effect of chloride ions, the samples contained 60 μM complex and 0–7300 equiv of Cl^–. For HSA-containing samples, complex concentrations were 60 μM, and 0.5 equiv of biomolecule (or 6 equiv of MIM) was added for kinetic studies, respectively. Individual samples contained 0–34 μM HSA. The computer program HypSpec was used to obtain equilibrium constants.

[2] = Stability/transformation in aqueous solution (1H NMR, UV-vis, CZE); format: physicochemical
Description: A Bruker Avance III HD Ascend 500 Plus instrument (Billerica, MA) was used for solution NMR studies. Spectra were recorded with a WATERGATE water suppression pulse scheme in the presence of 10% (v/v) D2O in most cases. DSS internal standard was added to samples to obtain reference peaks.

E. coli ATCC 25922 = assay: Antibacterial MIC assay, E. coli ATCC 25922; format: cell-based, Escherichia coli; settings: 18 h, visual inspection
Description: The antibacterial effect of the complex was tested against the Gram-negative strain Escherichia coli (E. coli) ATCC 25922, the Gram-positive reference strain Staphylococcus aureus (S. aureus) ATCC 25923, and the methicillin-resistant S. aureus MRSA ATCC 43300 strain. MRSA strains are responsible for several difficult-to-treat hospital-acquired infections.
The following bacterial strains were used in our experiments: Gram-positive S. aureus American Type Culture Collection (ATCC) 25923 as the methicillin-susceptible reference bacterial strain; methicillin-resistant S. aureus ATCC 43300 (MRSA) strain; E. coli ATCC 25922 as a Gram-negative bacterial strain.
MIC values of the complexes were determined in 96-well plates based on the Clinical and Laboratory Standard Institute guidelines (CLSI guidelines). The stock solutions of the compound (dissolved in DMSO at 5 mM concentration) were diluted in 100 μL of Mueller Hinton Broth. Then, 10^–4 dilution of an overnight bacterial culture in 100 μL of medium was added to each well, with the exception of the medium control wells.

[3] = target: T1, cathepsin B (exopeptidase activity) (Homo sapiens, UniProt P07858); assay: Determination of inhibition constants, cathepsin B exopeptidase activity; format: biochemical; settings: substrate Abz-GIVRAK(Dnp)-OH, mixed inhibition
T1 construct: made in house; host or cells: E. coli
Description: Human recombinant cathepsin B was expressed in E. coli, recombinant cathepsin V was expressed in Pichia pastoris, and human recombinant cathepsin L was expressed in E. coli, as reported. − For the determination of cathepsin B endopeptidase and exopeptidase activities, 100 mM phosphate buffer (pH 6.0) and 60 mM acetate buffer (pH 5.0) were used, respectively, and for the determination of cathepsin V and L activities, 100 mM acetate buffer (pH 5.5) was used. All buffers contained 0.1% PEG 8000 (Sigma-Aldrich, St. Louis, MO), 5 mM cysteine, and 1.5 mM EDTA. Prior to the assay, the enzymes were activated in the assay buffer for 5 min at 37 °C.
Inhibition constants were calculated from the reaction velocities measured at three substrate concentrations (the substrate Z-Arg-Arg-AMC at concentrations of 60, 180, and 360 μM and the substrate Abz-Gly-Ile-Val-Arg-Ala-Lys(Dnp)-OH at concentrations of 1, 3, and 6 μM to assess cathepsin B endopeptidase and exopeptidase activity, respectively) in the presence of seven concentrations of the inhibitor (0, 20, 40, 60, 80, 100, and 200 μM). […] Formation of fluorescent degradation products was monitored as described above. […]

## N#Cc1ccccc1.[C-]#[O+].[C-]#[O+].[C-]#[O+].[O-]n1ccccc1=S.[Re+] [complex 4, fac-[Re(CO)3(pth)(benzonitrile)]]
[1]
  integrity of the complex (aqua form) from UV-vis spectra: remains intact
[2]; water pH 6.8 and pH 7.4 (phosphate or HEPES buffer), kept in the dark, 1H NMR
  time for complete release of the benzonitrile ligand: ≤ 1 h
[2]; water pH 6.8 and pH 7.4 buffers, dark, 48 h
  dissociation of the pyrithione ligand: did not occur within 48 h
E. coli ATCC 25922
  MIC E. coli ATCC 25922: 50 µM
[3]
  Ki′ (dissociation of enzyme–substrate–inhibitor complex), exopeptidase activity: 67.0 ± 8.3 ^d μM
[3]; read-out: Ki (dissociation of enzyme–inhibitor complex), exopeptidase activity
  Ki: 165 ± 76 µM
